According to the NIST ThermoML archive (doi:10.1016/j.fluid.2018.07.022):
Numbers after ± are expanded uncertainties.

Settings: Liquid, Pendant drop shape

[HH] [hydrogen] + O
Settings | interfacial tension [mN/m]
298.03 K, 500 kPa | 72.3 ± 1.2
298.03 K, 1000 kPa | 72.9 ± 1.2
298.04 K, 2000 kPa | 73 ± 1.2
298.04 K, 5000 kPa | 72.6 ± 1.2
298.04 K, 7500 kPa | 72.2 ± 1.2
298.04 K, 10100 kPa | 71.9 ± 1.2
298.04 K, 25000 kPa | 70.3 ± 1.2
298.05 K, 3500 kPa | 72.8 ± 1.2
298.05 K, 45200 kPa | 68.7 ± 1.2
298.06 K, 15000 kPa | 71.3 ± 1.2
298.06 K, 20100 kPa | 70.8 ± 1.2
298.06 K, 30100 kPa | 69.8 ± 1.2
298.09 K, 39900 kPa | 69.1 ± 1.2
322.9 K, 1000 kPa | 69.3 ± 1.2
322.98 K, 2000 kPa | 69.3 ± 1.2
322.99 K, 5000 kPa | 68.9 ± 1.2
323 K, 3500 kPa | 69.1 ± 1.2
323 K, 10000 kPa | 68.3 ± 1.2
323 K, 15000 kPa | 67.8 ± 1.2
323 K, 40100 kPa | 65.8 ± 1.1
323.01 K, 20000 kPa | 67.2 ± 1.1
323.01 K, 25000 kPa | 66.8 ± 1.1
323.02 K, 500 kPa | 68.9 ± 1.2
323.02 K, 30100 kPa | 66.5 ± 1.1
372.73 K, 15000 kPa | 59 ± 1
372.74 K, 500 kPa | 59.8 ± 1
372.77 K, 1000 kPa | 59.7 ± 1
372.77 K, 25200 kPa | 58.5 ± 1
372.77 K, 29800 kPa | 58.1 ± 1
372.78 K, 2000 kPa | 59.7 ± 1
372.78 K, 40100 kPa | 57.6 ± 1
372.81 K, 10000 kPa | 59.3 ± 1
372.85 K, 20100 kPa | 58.7 ± 1
372.87 K, 5000 kPa | 59.5 ± 1
448.02 K, 2000 kPa | 44.1 ± 0.8
448.04 K, 1500 kPa | 44 ± 0.8
448.24 K, 5000 kPa | 43.8 ± 0.7
448.28 K, 15000 kPa | 43.4 ± 0.7
448.29 K, 10000 kPa | 43.7 ± 0.7
448.31 K, 25000 kPa | 43.2 ± 0.7
448.31 K, 30100 kPa | 42.9 ± 0.7
448.33 K, 20000 kPa | 43.3 ± 0.7
448.35 K, 40100 kPa | 43.2 ± 0.7
